Reference: PubChem BioAssay AID192 (DTP/NCI, 2004)
Inconclusive results and toxic doses are left out.

System: BDF1 mice, B16 melanoma ip, median survival T/C
Assay: NCI In Vivo Anticancer Drug Screen. Data for tumor model B16 Melanoma (intraperitoneal) in B6D2F1 (BDF1) mice
Conditions: endpoint: median survival time, higher = longer survival
Summary of the method: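 The ratio T/C compares compound-treated mice with vehicle-treated controls, using survival or tumor size as the endpoint in a transplantable tumor model.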

[1] = dose: 100.0 mg/kg/injection, schedule: Q01DX009 (ip), vehicle: saline with Tween-80
[2] = dose: 6.25 mg/kg/injection, schedule: Q01DX009 (ip), vehicle: Klucel (hydroxypropylcellulose) (HPC)
[3] = dose: 12.5 mg/kg/injection, schedule: Q01DX009 (ip), vehicle: Klucel (hydroxypropylcellulose) (HPC)
[4] = dose: 25.0 mg/kg/injection, schedule: Q01DX009 (ip), vehicle: Klucel (hydroxypropylcellulose) (HPC)
[5] = dose: 50.0 mg/kg/injection, schedule: Q01DX009 (ip), vehicle: Klucel (hydroxypropylcellulose) (HPC)
[6] = dose: 100.0 mg/kg/injection, schedule: Q01DX009 (ip), vehicle: Klucel (hydroxypropylcellulose) (HPC)
[7] = dose: 5.0 mg/kg/injection, schedule: Q01DX009 (ip), vehicle: saline
[8] = dose: 10.0 mg/kg/injection, schedule: Q01DX009 (ip), vehicle: saline
[9] = dose: 25.0 mg/kg/injection, schedule: Q01DX009 (ip), vehicle: saline
[10] = dose: 50.0 mg/kg/injection, schedule: Q01DX009 (ip), vehicle: saline
[11] = dose: 6.25 mg/kg/injection, schedule: Q01DX009 (ip), vehicle: saline
[12] = dose: 12.5 mg/kg/injection, schedule: Q01DX009 (ip), vehicle: saline
[13] = dose: 12.5 mg/kg/injection, schedule: Q01DX009 (ip), vehicle: saline with Tween-80
[14] = dose: 25.0 mg/kg/injection, schedule: Q01DX009 (ip), vehicle: saline with Tween-80
[15] = dose: 50.0 mg/kg/injection, schedule: Q01DX009 (ip), vehicle: saline with Tween-80
[16] = dose: 200.0 mg/kg/injection, schedule: Q01DX009 (ip), vehicle: saline with Tween-80
[17] = dose: 200.0 mg/kg/injection, schedule: Q01DX009 (ip), vehicle: Klucel (hydroxypropylcellulose) (HPC)
[18] = dose: 400.0 mg/kg/injection, schedule: Q01DX009 (ip), vehicle: Klucel (hydroxypropylcellulose) (HPC)
[19] = dose: 100.0 mg/kg/injection, schedule: Q04DX003 (ip), vehicle: Klucel (hydroxypropylcellulose) (HPC)
[20] = dose: 200.0 mg/kg/injection, schedule: Q04DX003 (ip), vehicle: Klucel (hydroxypropylcellulose) (HPC)

Compound: CCOC(=O)CCC[P+](c1ccccc1)(c1ccccc1)c1ccccc1
- T/C (dose: 5.0 mg/kg/injection, schedule: Q01DX009 (ip), vehicle: saline with Tween-80): 117 % of control
- T/C (dose: 20.0 mg/kg/injection, schedule: Q01DX009 (ip), vehicle: saline with Tween-80): 117 % of control
- T/C (dose: 40.0 mg/kg/injection, schedule: Q01DX009 (ip), vehicle: saline with Tween-80): 121 % of control
- T/C (dose: 66.0 mg/kg/injection, schedule: Q01DX009 (ip), vehicle: saline with Tween-80): 116 % of control
- T/C (dose: 80.0 mg/kg/injection, schedule: Q01DX009 (ip), vehicle: saline with Tween-80): 113 % of control
- T/C [1]: 100 % of control
- T/C (dose: 140.0 mg/kg/injection, schedule: Q01DX009 (ip), vehicle: saline with Tween-80): 112 % of control
- T/C (dose: 160.0 mg/kg/injection, schedule: Q01DX009 (ip), vehicle: saline with Tween-80): 116 % of control
- T/C (dose: 210.0 mg/kg/injection, schedule: Q01DX009 (ip), vehicle: saline with Tween-80): 104 % of control

Compound: COc1ccc(Cl)[n+]([O-])n1
- T/C (dose: 3.13 mg/kg/injection, schedule: Q01DX009 (ip), vehicle: Klucel (hydroxypropylcellulose) (HPC)): 92 % of control
- T/C [2]: 95 % of control
- T/C [3]: 98 % of control
- T/C [4]: 96 % of control
- T/C [5]: 98 % of control
- T/C [6]: 91 % of control

Compound: COc1cc([C@@H]2c3cc4c(cc3C[C@H]3COC(=O)[C@@H]32)OCO4)cc(OC)c1OC
- T/C [7]: 107 % of control
- T/C [8]: 109 % of control

Compound: O=C(O)CC[S-].[Ag+]
- T/C [9]: 99 % of control
- T/C [10]: 111 % of control
- T/C (dose: 100.0 mg/kg/injection, schedule: Q01DX009 (ip), vehicle: saline): 97 % of control

Compound: [Br][Pt].[NH-]CC[N-]CC[NH-]
- T/C (dose: 3.13 mg/kg/injection, schedule: Q01DX009 (ip), vehicle: saline): 108 % of control
- T/C [11]: 90 % of control
- T/C [12]: 91 % of control
- T/C [9]: 91 % of control

Compound: CCCC(=O)NC1=C(N2CC2)C(=O)C(NC(=O)CCC)=C(N2CC2)C1=O
- T/C (dose: 1.0 mg/kg/injection, schedule: Q01DX009 (ip), vehicle: saline): 86 % of control
- T/C (dose: 2.0 mg/kg/injection, schedule: Q01DX009 (ip), vehicle: saline): 118 % of control

Compound: COc1ccc(S(=O)(=O)N=N/C=C2\C=CC=CN2O)cc1OC
- T/C (dose: 6.25 mg/kg/injection, schedule: Q01DX009 (ip), vehicle: saline with Tween-80): 99 % of control
- T/C [13]: 100 % of control
- T/C [14]: 112 % of control
- T/C [15]: 112 % of control
- T/C [16]: 161 % of control

Compound: COc1cccc2c1C(=O)c1c(O)c3c(c(O)c1C2=O)C[C@@](O)(C(C)O)C[C@@H]3OC1CC(N2CCOCC2)C(O)C(C)O1 (stereo partly specified)
- T/C (dose: 62.5 micrograms/kg/injection, schedule: Q01DX001 (ip), vehicle: water): 100 % of control
- T/C (dose: 125.0 micrograms/kg/injection, schedule: Q01DX001 (ip), vehicle: water): 104 % of control
- T/C (dose: 250.0 micrograms/kg/injection, schedule: Q01DX001 (ip), vehicle: water): 112 % of control

Compound: CN1CCC(CN2c3ccccc3Sc3ccccc32)C1 (stereo unspecified)
- T/C (dose: 3.12 mg/kg/injection, schedule: Q01DX009 (ip), vehicle: saline): 105 % of control
- T/C [11]: 89 % of control
- T/C [12]: 94 % of control
- T/C [9]: 107 % of control
- T/C [10]: 92 % of control

Compound: CSC(=C[N+](=O)[O-])SC
- T/C (dose: 1.56 mg/kg/injection, schedule: Q01DX009 (ip), vehicle: water): 108 % of control
- T/C (dose: 3.13 mg/kg/injection, schedule: Q01DX009 (ip), vehicle: water): 91 % of control
- T/C (dose: 6.25 mg/kg/injection, schedule: Q01DX009 (ip), vehicle: water): 95 % of control
- T/C (dose: 12.5 mg/kg/injection, schedule: Q01DX009 (ip), vehicle: water): 99 % of control
- T/C (dose: 25.0 mg/kg/injection, schedule: Q01DX009 (ip), vehicle: water): 89 % of control

Compound: CCOc1ccccc1NC(=O)Nc1cccc2ccccc12
- T/C [6]: 103 % of control
- T/C [17]: 100 % of control
- T/C [18]: 103 % of control

Compound: Nc1cc(NC(=O)c2ccc(Cl)cc2)ccc1S(=O)(=O)O
- T/C (dose: 3.12 mg/kg/injection, schedule: Q01DX009 (ip), vehicle: Klucel (hydroxypropylcellulose) (HPC)): 94 % of control
- T/C [2]: 99 % of control
- T/C [3]: 96 % of control
- T/C [4]: 98 % of control
- T/C [5]: 98 % of control

Compound: CCCCCCCCC(O)CC (stereo unspecified)
- T/C [5]: 98 % of control
- T/C [6]: 97 % of control
- T/C [17]: 93 % of control

Compound: NC(N)=NCCc1ccccc1
- T/C [7]: 119 % of control
- T/C [8]: 111 % of control
- T/C (dose: 20.0 mg/kg/injection, schedule: Q01DX009 (ip), vehicle: saline): 114 % of control

Compound: CCN1/C(=C/C=C/C=C/c2sc3ccccc3[n+]2CC)Sc2ccccc21
- T/C (dose: 0.01 mg/kg/injection, schedule: Q01DX009 (ip), vehicle: saline): 100 % of control
- T/C (dose: 0.02 mg/kg/injection, schedule: Q01DX009 (ip), vehicle: saline): 98 % of control
- T/C (dose: 0.05 mg/kg/injection, schedule: Q01DX009 (ip), vehicle: saline): 93 % of control
- T/C (dose: 0.1 mg/kg/injection, schedule: Q01DX009 (ip), vehicle: saline): 98 % of control
- T/C (dose: 0.2 mg/kg/injection, schedule: Q01DX009 (ip), vehicle: saline): 100 % of control

Compound: C=C(Br)CNC(=O)CCC
- T/C (dose: 2.5 mg/kg/injection, schedule: Q01DX009 (ip), vehicle: saline): 103 % of control
- T/C [7]: 112 % of control
- T/C [8]: 104 % of control

Compound: COc1ccc([C@@H]2c3cc4c(cc3C[C@H]3COC(=O)[C@@H]32)OCO4)cc1OC
- T/C (dose: 11.0 mg/kg/injection, schedule: Q01DX009 (ip), vehicle: saline with Tween-80): 124 % of control
- T/C (dose: 22.0 mg/kg/injection, schedule: Q01DX009 (ip), vehicle: saline with Tween-80): 111 % of control
- T/C (dose: 33.0 mg/kg/injection, schedule: Q01DX009 (ip), vehicle: saline with Tween-80): 124 % of control
- T/C (dose: 67.0 mg/kg/injection, schedule: Q01DX009 (ip), vehicle: saline with Tween-80): 113 % of control

Compound: CC(C)CN(C)/N=N/c1nc[nH]c1C(N)=O
- T/C (dose: 18.75 mg/kg/injection, schedule: Q01DX009 (ip), vehicle: carboxymethylcellulose (CMC)): 111 % of control
- T/C (dose: 75.0 mg/kg/injection, schedule: Q01DX009 (ip), vehicle: carboxymethylcellulose (CMC)): 123 % of control

Compound: CCOC(=O)CCCN(c1ccccc1CC(=O)OCC)S(C)(=O)=O
- T/C [19]: 96 % of control
- T/C [20]: 104 % of control
- T/C (dose: 400.0 mg/kg/injection, schedule: Q04DX003 (ip), vehicle: Klucel (hydroxypropylcellulose) (HPC)): 96 % of control

Compound: CCOc1ncc([N+](=O)[O-])c(OCC)n1
- T/C [15]: 104 % of control
- T/C [1]: 100 % of control
- T/C (dose: 400.0 mg/kg/injection, schedule: Q01DX009 (ip), vehicle: saline with Tween-80): 95 % of control

Compound: ClC1CCCC[N-]1.ClC1CCCC[N-]1.[Cl][Pt+2][Cl] (stereo unspecified)
- T/C [13]: 91 % of control
- T/C [14]: 97 % of control
- T/C [15]: 89 % of control
- T/C [1]: 108 % of control
- T/C [16]: 105 % of control

Compound: Cc1cccc(NC(=O)Nc2ccc(Cl)cc2)c1C
- T/C (dose: 100.0 mg/kg/injection, schedule: Q01DX009 (ip), vehicle: gum acacia): 112 % of control
- T/C (dose: 200.0 mg/kg/injection, schedule: Q01DX009 (ip), vehicle: gum acacia): 107 % of control

Compound: COc1ccc(/C(C)=N\NC(=O)c2ccccc2)cc1
- T/C (dose: 50.0 mg/kg/injection, schedule: Q04DX003 (ip), vehicle: Klucel (hydroxypropylcellulose) (HPC)): 95 % of control
- T/C [19]: 102 % of control
- T/C [20]: 87 % of control

Compound: COc1cccc(N=Cc2ccc(C=Nc3cccc(OC)c3)cc2)c1
- T/C [6]: 107 % of control
- T/C [17]: 96 % of control
- T/C [18]: 96 % of control
